Experimental data as given in paper PMC10545790.
Several values for one entry are separate records, joined by “and”; a condition that tells them apart may be missing. Equal values may be shown once. Entries after “also recorded” stand apart in the source; their conditions may differ. Where a name gives a salt, the structure may show the parent alone.

Tests used:
[1] = Thermal and chemical stability; type: physicochemical
Text: We also examined the thermal and chemical stability of the synthesized 2-oxabicyclo[2.2.2]octanes. As representative examples, we selected three molecules: isomeric acids 47, 54, and amine 52. All 2-oxabicyclo[2.2.2]octanes were crystalline solids that were stable in air. We stored them in stock at room temperature in closed vials and observed no changes according to ^1H NMR after one year. […] Treatment of the selected 2-oxabicyclo[2.2.2]octanes with aq. 1 M HCl, or aq.

in vitro = conditions: both, human
[2] = system: human hepatocellular carcinoma cells HepG2; assay: High Content Imaging of HepG2 cells: nuclei count, necrosis (PI), apoptosis (caspase 3/7); type: cell-based; design: Nuclei Area wv1 / Mean nuclei area: unit not given here; conditions: for Mean nuclei area / Mean nuclei intensity / % of early apoptotic cells (PI negative, caspase positive) / % of necrotic and late apoptotic cells (PI positive) / All Targets.PI negative.casp positive (%) / All Targets.PI positive (%) / Nuclei Area wv1 / Nuclei Intensity wv1 / Nuclei Count wv1 / % of necrotic and late apoptotic cells (PI positive); cell toxicity level / inhibition of cell proliferation (in words) / cytotoxic effects (in words) / effect on cell proliferation (in words): HepG2, 48 h; for Mean nuclei intensity: Hoechst 33342; for % of early apoptotic cells (PI negative, caspase positive) / % of necrotic and late apoptotic cells (PI positive) / % of necrotic and late apoptotic cells (PI positive); cell toxicity level: mean of 3 wells; for All Targets.PI negative.casp positive (%) / All Targets.PI positive (%) / Nuclei Area wv1 / Nuclei Intensity wv1: single well; for Nuclei Count wv1: single well (concentration from plate map the 5th table); for inhibition of cell proliferation (in words): 50 μM, nuclei count; for effect on HepG2 cell death / apoptosis compared with Vorinostat (in words): HepG2, 48 h, 1, 5 and 50 μM; for cytotoxic effects (in words) / effect on cell proliferation (in words): 1 and 5 μM
Method: proliferation and cell death mechanisms, using High Content Imaging assay. The following parameters were assessed: nuclei count to measure inhibiting of the proliferation; cell membrane permeability to assess general cytotoxicity and necrosis; caspase activation to test apoptosis. […]
Human hepatocellular carcinoma HepG2 cell line was used to test biological action of Vorinostat and its analogues. Cell line was obtained from Leibniz Institute DSMZ - German Collection of Microorganisms and Cell Cultures. Cells were cultured in DMEM medium (Hyclone, Cat# SH30003.04) supplemented with 10% fetal bovine serum (Sigma-Aldrich, Cat# F7524), 100 units/mL penicillin and 100 μg/mL streptomycin (Sigma-Aldrich, Cat# P4333).
Before plating, the cells were first washed with PBS and then trypsinized with 0.01% trypsin solution (Sigma-Aldrich, Cat# T4174) in DPBS. The appropriate volume of culture medium was placed in a flask to stop further trypsinization, then the cells were centrifugated at 200 x g for 4 min, resuspended in fresh complete medium and counted using a counting chamber after being stained with Trypan Blue. […]
μL total volume per well and incubated at 37 °C/5%CO2/95%RH overnight. Vorinostat and test compounds were dissolved in 100% DMSO at a concentration of 10 mM and stored at -20 °C as single-use aliquots. Next day 20 μL of medium with compounds was added to the cells to the final DMSO concentration […]. Treatment for 48 hours was performed under growth conditions.
Compounds were assessed at the final concentrations 1, 5 and 50 μM (each in triplicates - 3 wells, 9 fields of view per well). Staining for nuclei, apoptotic cells with activated caspase 3/7 and dead […]
cells with permeabilized membrane was performed for 30 min under growth conditions in staining […]
3/7 Detection Reagent (Invitrogen, Cat# C10423) and 1 μM Propidium Iodide (Invitrogen, Cat# P3566) in medium complete. The cells were imaged with InCell Analyzer 6500, 20x obj. Image […]
Data were analyzed in GraphPad Prism 9.
Supplementary Fig. 16. Workflow of multiplexed cells staining.
Multiplexed staining allows to test cell toxicity and distinguish between necrosis and apoptosis within one single experiment (Supplementary Fig. 16).
CellEvent Caspase-3/7 Green Detection Reagent labels cells with activated caspases. Propidium Iodide (PI) labels dead cells with permeabilized membrane. Hoechst-positive cells were counted to assess the % of cell toxicity. PI-positive cells are dead – this is a fraction of necrotic and late apoptotic cells, used for assessing of cytotoxicity/necrosis. Early apoptotic cells are caspase-positive, PI-negative because their membrane isn’t compromised yet. Percentages of cells of certain […]
background and comparing with overall number of cells.

[3] = microsomes, pH 7.4, % Remaining, Mean of 2

SMILES | Mean nuclei area ([2]; 1 uM) | Mean nuclei intensity ([2]; 1 uM) [RFU] | % of early apoptotic cells (PI negative, caspase positive) ([2]; 1 uM) [%] | % of necrotic and late apoptotic cells (PI positive) ([2]; 1 uM) [%] | All Targets.PI negative.casp positive (%) ([2]; 1 uM) | All Targets.PI positive (%) ([2]; 1 uM) | Nuclei Area wv1 ([2]; 1 uM) | Nuclei Count wv1 ([2]; 1 uM) | Mean nuclei area ([2]; 5 uM) | Mean nuclei intensity ([2]; 5 uM) [RFU] | % of early apoptotic cells (PI negative, caspase positive) ([2]; 5 uM) [%] | % of necrotic and late apoptotic cells (PI positive) ([2]; 5 uM) [%] | All Targets.PI negative.casp positive (%) ([2]; 5 uM) | All Targets.PI positive (%) ([2]; 5 uM) | Nuclei Area wv1 ([2]; 5 uM) | Nuclei Intensity wv1 ([2]; 5 uM) | Nuclei Count wv1 ([2]; 5 uM) | Mean nuclei area ([2]; 50 uM) | Mean nuclei intensity ([2]; 50 uM) [RFU] | % of early apoptotic cells (PI negative, caspase positive) ([2]; 50 uM) [%] | other results
CC12CCC(CN)(CC1)OC2 [Compound 52] |  |  |  |  |  |  |  |  |  |  |  |  |  |  |  |  |  |  |  |  | chemical stability in acid ([1]; aq. 1 M HCl, room temperature, 1 h): no decomposition; chemical stability in base ([1]; aq. 1 M NaOH, room temperature, 1 h): no decomposition; thermal stability ([1]; heating at 100 °C for five minutes): remained stable; stability on storage ([1]; in air, room temperature, closed vials, one year, 1H NMR): no changes
CC(C)NCC(O)COc1cccc2ccccc12 (racemic) [Propranolol, (+,-) Propranolol hydrochloride] |  |  |  |  |  |  |  |  |  |  |  |  |  |  |  |  |  |  |  |  | remaining at 40 min, 2 µM (in vitro; [3]): 66%; half-life at 2 µM (in vitro; microsomes, pH 7.4, t1/2: half-time of a metabolic decomposition): 1.02 h; k el at 2 µM (in vitro; pH 7.4, kel (elimination constant)): 0.000183 s⁻¹
O=C(CCCCCCC(=O)Nc1ccccc1)NO [Vorinostat, reference compound] | 133.3 | 3539.0 | 1.4 | 2.0 | 1.09% and 1.685% and 1.464% | 1.46% and 2.372% and 2.236% | 132.596 and 129.806 and 137.55 | 5137 and 4806 and 4919 | 133.4 | 4444.0 | 7.2 | 10.4 | 8.109% and 5.087% and 8.342% | 11.8095% and 7.619% and 11.7647% | 135.125 and 131.698 and 133.281 | 4725.81 and 3784.72 and 4822.36 | 3675 and 4187 and 3740 | 122.1 | 1952.0 | 12.2 | Nuclei Intensity wv1 ([2]; 1 uM): 3323.23 and 3018.81 and 4275.36; % of necrotic and late apoptotic cells (PI positive); cell toxicity level ([2]; 50 uM): 77% and 77.5%; All Targets.PI negative.casp positive (%) ([2]; 50 uM): 12.2839% and 13.7268% and 10.5715%; All Targets.PI positive (%) ([2]; 50 uM): 77.0504% and 75.6692% and 79.9029%; Nuclei Area wv1 ([2]; 50 uM): 120.16 and 121.222 and 124.941; Nuclei Intensity wv1 ([2]; 50 uM): 1713 and 2196.3 and 1947.17; Nuclei Count wv1 ([2]; 50 uM): 2719 and 2914 and 2677
O=C(CCCCCCC(=O)NC12CCC(CC1)CC2)NO [Compound 89] | 117.0 | 3374.0 | 0.444 | 0.6 | 0.4175% and 0.3796% and 0.5358% | 0.5526% and 0.5457% and 0.7144% | 115.697 and 116.603 and 118.647 | 8143 and 8429 and 8399 | 120.9 | 4138.0 | 0.563 | 0.9 | 0.4763% and 0.5673% and 0.6459% | 0.9922% and 0.9996% and 0.6321% | 120.224 and 120.771 and 121.802 | 4041.68 and 3853.68 and 4517.41 | 7559 and 7403 and 7277 | 115.2 | 2088.0 | 9.5 | % of necrotic and late apoptotic cells (PI positive); cell toxicity level ([2]; 50 uM): 67% and 67.1%; inhibition of cell proliferation (in words) [2]: inhibited cell proliferation at 50 μM concentration to the same level as Vorinostat; All Targets.PI negative.casp positive (%) ([2]; 50 uM): 10.5117% and 9.102% and 8.933%; All Targets.PI positive (%) ([2]; 50 uM): 65.2916% and 67.7168% and 68.1969%; Nuclei Area wv1 ([2]; 50 uM): 113.454 and 115.571 and 116.43; Nuclei Intensity wv1 ([2]; 50 uM): 1984.47 and 1672.21 and 2607.1; Nuclei Count wv1 ([2]; 50 uM): 2521 and 2571 and 2418; effect on HepG2 cell death / apoptosis compared with Vorinostat (in words) [2]: activity profile was the closest to Vorinostat; also recorded: active; cytotoxic effects (in words) [2]: did not demonstrate any significant cytotoxic effects; effect on cell proliferation (in words) [2]: did not have any significant effects
Cc1ccc(NC(=O)c2ccc(CN3CCN(C)CC3)cc2)cc1Nc1nccc(-c2cccnc2)n1 [Imatinib] |  |  |  |  |  |  |  |  |  |  |  |  |  |  |  |  |  |  |  |  | remaining at 40 min, 2 µM (in vitro; microsomes, pH 7.4, % Remaining without cofactor, Mean of 2): 88%; remaining at 7 min, 2 µM (in vitro; [3]): 109%; remaining at 0.25 h, 2 µM (in vitro; [3]): 93%; remaining at 25 min, 2 µM (in vitro; [3]): 82%; remaining at 40 min, 2 µM (in vitro; [3]): 66%
O=C(CCCCCCC(=O)NC12CCC(CC1)OC2)NO [Compound 88] | 117.1 | 2764.0 | 0.344 | 0.9 | 0.2791% and 0.3975% and 0.3542% | 1.031% and 0.9564% and 0.6961% | 117.054 and 118.289 and 116.039 | 8241 and 8051 and 8188 | 118.3 | 3381.0 | 0.463 | 0.8 | 0.548% and 0.4031% and 0.4377% | 0.8821% and 0.8306% and 0.721% | 119.866 and 117.043 and 117.864 | 3478.61 and 2783.26 and 3882.1 | 7482 and 8187 and 7767 | 129.6 | 3968.0 | 12.0 | Nuclei Intensity wv1 ([2]; 1 uM): 2311.93 and 2195.12 and 3784.44; % of necrotic and late apoptotic cells (PI positive); cell toxicity level ([2]; 50 uM): 18% and 18.5%; inhibition of cell proliferation (in words) [2]: inhibited cell proliferation at 50 μM concentration to the same level as Vorinostat; All Targets.PI negative.casp positive (%) ([2]; 50 uM): 11.5569% and 11.4167% and 12.9144%; All Targets.PI positive (%) ([2]; 50 uM): 19.3713% and 17.5096% and 18.5033%; Nuclei Area wv1 ([2]; 50 uM): 130.383 and 125.337 and 133.198; Nuclei Intensity wv1 ([2]; 50 uM): 4177.18 and 3221.5 and 4506.24; Nuclei Count wv1 ([2]; 50 uM): 3340 and 3381 and 3167; effect on HepG2 cell death / apoptosis compared with Vorinostat (in words) [2]: active; cytotoxic effects (in words) [2]: did not demonstrate any significant cytotoxic effects; effect on cell proliferation (in words) [2]: did not have any significant effects
